Active and inactive are the calls of the source. The rule behind the calls is not given here.
Assays:
MGC-803 [1] = experiment: Induction of apoptosis in human MGC803 cells assessed as late apoptotic cells at 25 uM after 24 hrs by Annexin V-FITC/propidium iodide staining based flow cytometry (reference value: 0.12%); format: functional
MGC-803 [2] = experiment: Induction of necrosis in human MGC803 cells at 6.25 uM after 48 hrs by Hoechst 33342/propidium iodide staining based flow cytometry (reference value: 3.73%); format: functional
MGC-803 [3] = experiment: Induction of apoptosis in human MGC803 cells assessed as necrotic cells at 25 uM after 24 hrs by Annexin V-FITC/propidium iodide staining based flow cytometry (reference value: 0.92%); format: functional
MGC-803 [4] = experiment: Cell cycle arrest in human MGC803 cells assessed as accumulation at G2/M phase at 6.25 uM after 24 hrs by propidium iodide staining based flow cytometry (reference value: 9.15%); format: functional
MGC-803 [5] = experiment: Cell cycle arrest in human MGC803 cells assessed as accumulation at S phase at 6.25 uM after 24 hrs by propidium iodide staining based flow cytometry (reference value: 31.17%); format: functional
MGC-803 [6] = experiment: Cell cycle arrest in human MGC803 cells assessed as accumulation at G0/G1 phase at 6.25 uM after 24 hrs by propidium iodide staining based flow cytometry (reference value: 59.68%); format: functional
K562 = experiment: Cytotoxicity against human K562 cells assessed as reduction in cell proliferation after 48 hrs by MTT assay; format: functional, cell-based; conditions: Homo sapiens, K562, 48 h
MGC-803 [7] = experiment: Cell cycle arrest in human MGC803 cells assessed as accumulation at S phase at 25 uM after 24 hrs by propidium iodide staining based flow cytometry (reference value: 31.17%); format: functional
NCI-H1975 = experiment: Cytotoxicity against human NCI-H1975 cells assessed as reduction in cell proliferation after 48 hrs by MTT assay; format: functional, cell-based; conditions: Homo sapiens, NCI-H1975, 48 h
MGC-803 [8] = experiment: Cell cycle arrest in human MGC803 cells assessed as accumulation at G2/M phase at 25 uM after 24 hrs by propidium iodide staining based flow cytometry (reference value: 9.15%); format: functional
MGC-803 [9] = experiment: Cytotoxicity against human MGC803 cells assessed as reduction in cell proliferation after 48 hrs by MTT assay; format: functional, cell-based; conditions: Homo sapiens, MGC-803, 48 h
MGC-803 [10] = experiment: Induction of apoptosis in human MGC803 cells assessed as early apoptotic cells at 12.5 uM after 24 hrs by Annexin V-FITC/propidium iodide staining based flow cytometry (reference value: 0.56%); format: functional
MGC-803 [11] = experiment: Induction of apoptosis in human MGC803 cells assessed as necrotic cells at 6.25 uM after 24 hrs by Annexin V-FITC/propidium iodide staining based flow cytometry (reference value: 0.92%); format: functional
[12] = Cytotoxicity against human HO8910 cells assessed as reduction in cell proliferation after 48 hrs by MTT assay; format: functional, cell-based; conditions: Homo sapiens, HO-8910, 48 h
MGC-803 [13] = experiment: Cell cycle arrest in human MGC803 cells assessed as accumulation at G2/M phase at 12.5 uM after 24 hrs by propidium iodide staining based flow cytometry (reference value: 9.15%); format: functional
MGC-803 [14] = experiment: Induction of necrosis in human MGC803 cells at 25 uM after 48 hrs by Hoechst 33342/propidium iodide staining based flow cytometry (reference value: 3.73%); format: functional
MGC-803 [15] = experiment: Induction of apoptosis in human MGC803 cells assessed as early apoptotic cells at 25 uM after 24 hrs by Annexin V-FITC/propidium iodide staining based flow cytometry (reference value: 0.56%); format: functional
HL-60 = experiment: Cytotoxicity against human HL60 cells assessed as reduction in cell proliferation after 48 hrs by MTT assay; format: functional, cell-based; conditions: Homo sapiens, HL-60, 48 h
HCT-116 = experiment: Cytotoxicity against human HCT116 cells assessed as reduction in cell proliferation after 48 hrs by MTT assay; format: functional, cell-based; conditions: Homo sapiens, HCT-116, 48 h
MGC-803 [16] = experiment: Cell cycle arrest in human MGC803 cells assessed as accumulation at S phase at 12.5 uM after 24 hrs by propidium iodide staining based flow cytometry (reference value: 31.17%); format: functional
MGC-803 [17] = experiment: Induction of apoptosis in human MGC803 cells assessed as late apoptotic cells at 12.5 uM after 24 hrs by Annexin V-FITC/propidium iodide staining based flow cytometry (reference value: 0.12%); format: functional
MGC-803 [18] = experiment: Cell cycle arrest in human MGC803 cells assessed as accumulation at G0/G1 phase at 12.5 uM after 24 hrs by propidium iodide staining based flow cytometry (reference value: 59.68%); format: functional
MGC-803 [19] = experiment: Induction of apoptosis in human MGC803 cells assessed as necrotic cells at 12.5 uM after 24 hrs by Annexin V-FITC/propidium iodide staining based flow cytometry (reference value: 0.92%); format: functional
MGC-803 [20] = experiment: Induction of apoptosis in human MGC803 cells assessed as early apoptotic cells at 6.25 uM after 24 hrs by Annexin V-FITC/propidium iodide staining based flow cytometry (reference value: 0.56%); format: functional
MGC-803 [21] = experiment: Induction of necrosis in human MGC803 cells at 12.5 uM after 48 hrs by Hoechst 33342/propidium iodide staining based flow cytometry (reference value: 3.73%); format: functional
A549 = experiment: Cytotoxicity against human A549 cells assessed as reduction in cell proliferation after 48 hrs by MTT assay; format: functional, cell-based; conditions: Homo sapiens, A549, 48 h
HEK293 = experiment: Cytotoxicity against HEK293 cells assessed as reduction in cell proliferation after 48 hrs by MTT assay; format: cell-based; conditions: Homo sapiens, HEK293, 48 h
MGC-803 [22] = experiment: Cell cycle arrest in human MGC803 cells assessed as accumulation at G0/G1 phase at 25 uM after 24 hrs by propidium iodide staining based flow cytometry (reference value: 59.68%); format: functional
MGC-803 [23] = experiment: Induction of apoptosis in human MGC803 cells assessed as late apoptotic cells at 6.25 uM after 24 hrs by Annexin V-FITC/propidium iodide staining based flow cytometry (reference value: 0.12%); format: functional
[24] = biological target: T1, DNA topoisomerase 1 (Homo sapiens) (UniProt P11387); experiment: Inhibition of DNA topoisomerase-1 (unknown origin) at 10 uM using supercoiled pBR322 DNA as substrate preincubated for 15 mins followed by substrate addition measured after 30 mins by ethidium bromide staining based agarose gel electrophoresis method
T1 sequence (whole entry): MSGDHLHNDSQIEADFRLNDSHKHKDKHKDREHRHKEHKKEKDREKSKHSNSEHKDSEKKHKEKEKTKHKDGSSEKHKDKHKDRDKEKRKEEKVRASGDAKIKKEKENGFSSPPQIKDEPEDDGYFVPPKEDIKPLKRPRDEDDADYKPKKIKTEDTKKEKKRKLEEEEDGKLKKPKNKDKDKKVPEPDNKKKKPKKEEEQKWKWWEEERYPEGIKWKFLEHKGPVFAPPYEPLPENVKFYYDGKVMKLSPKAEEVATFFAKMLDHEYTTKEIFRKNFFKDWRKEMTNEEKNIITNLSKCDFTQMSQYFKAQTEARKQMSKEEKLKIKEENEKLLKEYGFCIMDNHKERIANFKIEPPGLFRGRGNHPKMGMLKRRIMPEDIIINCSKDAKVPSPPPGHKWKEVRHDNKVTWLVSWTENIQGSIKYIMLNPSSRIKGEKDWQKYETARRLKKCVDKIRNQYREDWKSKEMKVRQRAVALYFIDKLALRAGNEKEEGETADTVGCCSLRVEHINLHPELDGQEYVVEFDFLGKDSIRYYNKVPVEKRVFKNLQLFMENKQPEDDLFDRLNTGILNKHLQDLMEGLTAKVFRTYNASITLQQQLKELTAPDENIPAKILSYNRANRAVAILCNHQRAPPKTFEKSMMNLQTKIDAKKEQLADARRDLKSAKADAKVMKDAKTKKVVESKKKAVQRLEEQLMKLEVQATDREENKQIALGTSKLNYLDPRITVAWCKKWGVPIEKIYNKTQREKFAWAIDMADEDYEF

DNA [25] = experiment: Binding affinity to Escherichia coli pBR322 DNA assessed as hypochromicity by UV-Visible spectrum analysis; format: nucleic-acid assay
MGC-803 [26] = experiment: Induction of apoptosis in human MGC803 cells assessed as change in PARP protein expression up to 25 uM after 24 hrs by Western blot analysis; format: functional, cell-based
DNA [27] = experiment: Inhibition of ethidium bromide binding to Escherichia coli pBR322 DNA at 100 uM after 30 mins by fluorescence assay; format: nucleic-acid assay
MGC-803 [28] = experiment: Induction of cell membrane permeability in human MGC803 cells up to 50 uM up to 72 hrs by LDH release assay; format: functional, cell-based
[29] = biological target: T1, DNA topoisomerase 1 (Homo sapiens); experiment: Inhibition of DNA topoisomerase-1 (unknown origin) at 10 uM using supercoiled pBR322 DNA as substrate preincubated for 1 to 30 mins followed by substrate addition by ethidium bromide staining based agarose gel electrophoresis method; conditions: TDE = time-dependent effect
MGC-803 [30] = experiment: Induction of necrosis in human MGC803 cells after 24 hrs by Annexin V-FITC/propidium iodide staining based flow cytometry; format: functional, cell-based
MGC-803 [31] = experiment: Cell cycle arrest in human MGC803 cells assessed as accumulation at G2/M phase after 24 hrs by propidium iodide staining based flow cytometry; format: functional
MGC-803 [32] = experiment: Induction of apoptosis in human MGC803 cells up to 25 uM after 48 hrs by Hoechst 33342/propidium iodide staining based flow cytometry; format: functional, cell-based
[33] = biological target: T1, DNA topoisomerase 1 (Homo sapiens); experiment: Inhibition of DNA topoisomerase-1 (unknown origin) using supercoiled pBR322 DNA as substrate preincubated with enzyme followed by substrate addition measured after 30 mins by ethidium bromide staining based agarose gel electrophoresis method
Homo sapiens = organism: Homo sapiens; experiment: Inhibition of DNA topoisomerase-2 (unknown origin) at 100 uM using kinetoplast DNA as substrate measured after 30 mins by ethidium bromide staining based agarose gel electrophoresis method
MGC-803 [34] = experiment: Induction of apoptosis in human MGC803 cells assessed as change in procaspase-9 protein expression up to 25 uM after 24 hrs by Western blot analysis; format: functional, cell-based
[35] = biological target: T2, Topoisomerase I (Bos taurus) (UniProt Q2HPH0); experiment: Inhibition of calf thymus DNA topoisomerase-1-mediated supercoiled pBR322 DNA relaxation assessed as stabilization of enzyme-DNA complex at 100 uM preincubated with enzyme followed by substrate addition measured after 30 mins by ethidium bromide staining based agarose gel electrophoresis method
T2 sequence (whole entry): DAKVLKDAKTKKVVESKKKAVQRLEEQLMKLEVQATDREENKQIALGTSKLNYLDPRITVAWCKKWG

DNA [36] = experiment: Binding affinity to Escherichia coli pBR322 DNA assessed as red shift by UV-Visible spectrum analysis; format: nucleic-acid assay

SMILES: COC(=O)[C@@]12Oc3cc(C)c(-c4ccc5c(c4O)C(=O)C4=C(O)C[C@H](C)[C@@H](O)[C@]4(C(=O)OC)O5)c(O)c3C(=O)C1=C(O)CC[C@H]2O (stereo in doubt; 1) [listing 1 of 2 here]
- Activity (MGC-803 [1]): 0.59%
- Activity (MGC-803 [2]): 6.97%
- Activity (MGC-803 [3]): 4.06%
- Activity (MGC-803 [4]): 35.33%
- Activity (MGC-803 [5]): 31.02%
- Activity (MGC-803 [6]): 33.65%
- IC50 (K562): 20.9 µM
- Activity (MGC-803 [7]): 22.9%
- IC50 (NCI-H1975): 9.8 µM
- Activity (MGC-803 [8]): 47.43%
- IC50 (MGC-803 [9]): 4.6 µM
- Activity (MGC-803 [10]): 0.42%
- Activity (MGC-803 [11]): 1.88%
- IC50 [12]: 9.6 µM
- Activity (MGC-803 [13]): 37.32%
- Activity (MGC-803 [14]): 31.33%
- Activity (MGC-803 [15]): 0.26%
- IC50 (HL-60): 13.4 µM
- IC50 (HCT-116): 16.2 µM
- Activity (MGC-803 [16]): 36.98%
- Activity (MGC-803 [17]): 0.56%
- Activity (MGC-803 [18]): 25.7%
- Activity (MGC-803 [19]): 1.46%
- Activity (MGC-803 [20]): 0.26%
- Activity (MGC-803 [21]): 19.29%
- IC50 (A549): 17.8 µM
- IC50 (HEK293): > 50 µM
- Activity (MGC-803 [22]): 29.67%
- Activity (MGC-803 [23]): 0.17%

SMILES: COC(=O)[C@@]12Oc3cc(C)c(-c4ccc5c(c4O)C(=O)C4=C(O)C[C@H](C)[C@@H](O)[C@]4(C(=O)OC)O5)c(O)c3C(=O)C1=C(O)CC[C@H]2O (stereo in doubt; 1) [listing 2 of 2 here]
- inhibition [24]: 100%
- Activity (DNA [25]): inactive
- Activity (MGC-803 [26]): inactive
- inhibition (DNA [27]): inactive
- Activity (MGC-803 [28]): Active
- inhibition [29]: Tde
- Activity (MGC-803 [30]): Dose-dependent effect
- Activity (MGC-803 [31]): Dose-dependent effect
- Activity (MGC-803 [32]): inactive
- inhibition [33]: Dose-dependent effect
- inhibition (Homo sapiens): inactive
- Activity (MGC-803 [34]): inactive
- inhibition [35]: Active
- Activity (DNA [36]): inactive
